Laboratory results from patent US10988477B2 (Merck Patent GmbH, priority 2018, dated 2021).

Legend:
[1] = target: intracellular GCN2 (phosphorylation of the GCN2 substrate eIF2α) (Homo sapiens, UniProt Q9P2K8); test: GCN2 cellular inhibition assay (AlphaScreen SureFire P-eIF2α Ser51, borrelidin-treated U2OS cells); type: cell-based; details: compounds of Formula II; biomarker assay, phosphorylated eIF2α Ser51 in borrelidin-treated U2OS cells
Outline: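 First, U2OS cells are plated and left overnight at 37 °C. Next, compounds (from 40 μM final, 4-fold steps) and 10 μM borrelidin are added for 1 h, cells lysed, and phospho-Ser51 eIF2α detected by AlphaScreen bead sandwich. Inhibition is computed versus borrelidin-only wells.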

GCN2 kinase = GCN2 kinase (Homo sapiens, UniProt Q9P2K8); test: GCN2 enzyme inhibition assay (Transcreener ADP2 fluorescence polarization); type: biochemical; details: compounds of Formula II; 280 μM ATP, 4 nM GCN2 kinase
Sequence of GCN2 kinase (Q9P2K8 whole entry): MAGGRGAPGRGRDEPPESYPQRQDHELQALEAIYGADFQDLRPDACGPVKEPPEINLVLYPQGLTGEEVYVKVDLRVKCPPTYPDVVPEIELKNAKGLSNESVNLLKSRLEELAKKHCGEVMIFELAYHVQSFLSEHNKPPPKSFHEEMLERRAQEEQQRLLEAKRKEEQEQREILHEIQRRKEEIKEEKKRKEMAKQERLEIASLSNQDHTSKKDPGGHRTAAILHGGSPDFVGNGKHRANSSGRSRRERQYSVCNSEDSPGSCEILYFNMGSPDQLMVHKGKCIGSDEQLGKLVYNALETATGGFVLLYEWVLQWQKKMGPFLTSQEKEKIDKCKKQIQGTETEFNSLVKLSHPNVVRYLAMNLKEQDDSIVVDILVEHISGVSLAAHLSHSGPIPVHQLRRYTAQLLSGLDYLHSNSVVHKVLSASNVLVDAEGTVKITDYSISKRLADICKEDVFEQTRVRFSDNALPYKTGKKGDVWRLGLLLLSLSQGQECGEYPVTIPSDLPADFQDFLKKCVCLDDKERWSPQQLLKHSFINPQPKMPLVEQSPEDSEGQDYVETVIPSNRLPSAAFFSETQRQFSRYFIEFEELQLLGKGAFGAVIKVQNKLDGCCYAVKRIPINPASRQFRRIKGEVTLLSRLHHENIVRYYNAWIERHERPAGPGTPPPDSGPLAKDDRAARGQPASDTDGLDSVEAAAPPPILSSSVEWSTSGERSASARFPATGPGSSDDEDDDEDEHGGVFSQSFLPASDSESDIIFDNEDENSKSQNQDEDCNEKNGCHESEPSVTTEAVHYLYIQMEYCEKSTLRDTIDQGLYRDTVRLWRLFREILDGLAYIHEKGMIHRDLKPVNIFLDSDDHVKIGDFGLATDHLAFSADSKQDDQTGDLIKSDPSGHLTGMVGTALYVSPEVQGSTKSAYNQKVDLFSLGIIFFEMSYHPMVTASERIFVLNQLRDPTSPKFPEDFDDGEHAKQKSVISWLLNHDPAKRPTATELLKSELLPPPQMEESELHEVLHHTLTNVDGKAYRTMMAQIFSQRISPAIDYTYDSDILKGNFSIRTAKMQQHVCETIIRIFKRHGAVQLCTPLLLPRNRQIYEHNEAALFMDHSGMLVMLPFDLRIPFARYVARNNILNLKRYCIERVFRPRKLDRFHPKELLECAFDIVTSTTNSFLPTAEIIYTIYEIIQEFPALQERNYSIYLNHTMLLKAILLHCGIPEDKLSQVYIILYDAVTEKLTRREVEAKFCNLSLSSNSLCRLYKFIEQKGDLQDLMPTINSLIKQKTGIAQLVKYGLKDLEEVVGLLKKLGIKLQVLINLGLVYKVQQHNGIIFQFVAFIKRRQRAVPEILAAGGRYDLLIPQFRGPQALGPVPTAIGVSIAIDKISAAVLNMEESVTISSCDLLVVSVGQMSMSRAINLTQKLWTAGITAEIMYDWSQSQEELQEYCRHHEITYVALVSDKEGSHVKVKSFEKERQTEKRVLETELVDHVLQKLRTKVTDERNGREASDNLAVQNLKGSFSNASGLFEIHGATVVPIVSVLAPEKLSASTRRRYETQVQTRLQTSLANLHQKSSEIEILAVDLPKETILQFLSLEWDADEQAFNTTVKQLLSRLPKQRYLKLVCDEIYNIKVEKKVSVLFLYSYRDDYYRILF
Outline: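 Human GCN2 (4 nM) preincubated 10 min with compound (0–8 μM) and 200 μM (RS)7 peptide in Tris-HCl pH 7.5, NaCl, MgCl2, DTT. Reaction started with 280 μM ATP, run 1 h at 25 °C. ADP detected by Transcreener fluorescence polarization. IC50 and Ki(app) fitted by tight-binding algorithm.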

Sequence of intracellular GCN2 (phosphorylation of the GCN2 substrate eIF2α) (Q9P2K8 whole entry): as above

SMILES | IC50 [1] | Ki (GCN2 kinase)
CS(=O)(=O)NCC1CCCN(c2cc(-c3cnc4ccc(C(F)F)nn34)cc(C#N)n2)C1 (stereo not shown) [II-130, N-((1-(6-Cyano-4-(6-(difluoromethyl)imidazo[1,2-b]pyridazin-3-yl)pyridin-2-yl)piperidin-3-yl)methyl)methanesulfonamide] | > 5000 nM | 10 to 1000 nM
CS(=O)(=O)N(O)CC1CN(c2cc(-c3cnc4ccc(C(F)F)nn34)ccn2)CCC1(F)F (stereo not shown) [II-131, N-((1-(4-(6-(Difluoromethyl)imidazo[1,2-b]pyridazin-3-yl)pyridin-2-yl)-4,4-difluoropiperidin-3-yl)methyl)-N-hydroxymethanesulfonamide] | < 500 nM | < 10 nM
NC(=O)C1CN(c2cc(-c3cnc4ccc(C(F)F)nn34)ccn2)CCO1 (stereo not shown) [II-135, 4-(4-(6-(Difluoromethyl)imidazo[1,2-b]pyridazin-3-yl)pyridin-2-yl)morpholine-2-carboxamide] | 500 to 5000 nM | 10 to 1000 nM
CS(=O)(=O)N1CC2(CCCN(c3cc(-c4cnc5ccc(C(F)F)nn45)ccn3)C2)C1 [II-136, 6-(Difluoromethyl)-3-(2-(2-(methylsulfonyl)-2,6-diazaspiro[3.5]nonan-6-yl)pyridin-4-yl)imidazo[1,2-b]pyridazine] | < 500 nM | < 10 nM
CS(=O)(=O)NCC1(O)CCN(c2cc(-c3cnc4ccc(C(F)F)nn34)ncn2)C1 (stereo not shown) [II-137, N-((1-(6-(6-(Difluoromethyl)imidazo[1,2-b]pyridazin-3-yl)pyrimidin-4-yl)-3-hydroxypyrrolidin-3-yl)methyl)methanesulfonamide] | > 5000 nM | 10 to 1000 nM
CS(=N)(=O)CC1CCCN(c2cc(-c3cnc4ccc(C(F)F)nn34)ccn2)C1 (stereo not shown) [II-138, ((1-(4-(6-(Difluoromethyl)imidazo[1,2-b]pyridazin-3-yl)pyridin-2-yl)piperidin-3-yl)methyl)(imino)(methyl)-λ^6-sulfanone] | 500 to 5000 nM | 10 to 1000 nM
CS(=O)(=O)NCC1(F)CCCN(c2cc(-c3cnc4ccc(C(F)F)nn34)ccn2)C1 (stereo not shown) [II-139, N-((1-(4-(6-(Difluoromethyl)imidazo[1,2-b]pyridazin-3-yl)pyridin-2-yl)-3-fluoropiperidin-3-yl)methyl)methanesulfonamide] | 500 to 5000 nM | 10 to 1000 nM
CS(=O)(=O)NCC1CN(c2cc(-c3cnc4ccc(C(F)F)nn34)ncn2)CC1O (stereo not shown) [II-140, N-((1-(6-(6-(Difluoromethyl)imidazo[1,2-b]pyridazin-3-yl)pyrimidin-4-yl)-4-hydroxypyrrolidin-3-yl)methyl)methanesulfonamide] | > 5000 nM | 10 to 1000 nM
CS(=O)(=O)NCC1CCCN(c2cc(-c3cnc4ccc(C(F)F)nn34)cc(O)n2)C1 (stereo not shown) [II-141, N-((1-(4-(6-(difluoromethyl)imidazo[1,2-b]pyridazin-3-yl)-6-oxo-1,6-dihydropyridin-2-yl)piperidin-3-yl)methyl)methanesulfonamide] | 500 to 5000 nM | < 10 nM
COc1cc(-c2cnc3ccc(C(F)F)nn23)cc(N2CCCC(CNS(C)(=O)=O)C2)n1 (stereo not shown) [II-142, N-((1-(4-(6-(Difluoromethyl)imidazo[1,2-b]pyridazin-3-yl)-6-methoxypyridin-2-yl)piperidin-3-yl)methyl)methanesulfonamide] | 500 to 5000 nM | < 10 nM
NC(=O)[C@H]1CCCN(c2cc(-c3cnc4ccc(C(F)F)nn34)ccn2)C1 [II-143, (S′)-1-(4-(6-(Difluoromethyl)imidazo[1,2-b]pyridazin-3-yl)pyridin-2-yl)piperidine-3-carboxamide] | < 500 nM | < 10 nM
NS(=O)(=O)CC1CCCN(c2cc(-c3cnc4ccc(C(F)F)nn34)ccn2)C1 (stereo not shown) [II-144, (1-(4-(6-(Difluoromethyl)imidazo[1,2-b]pyridazin-3-yl)pyridin-2-yl)piperidin-3-yl)methanesulfonamide] | 500 to 5000 nM | 10 to 1000 nM
FC(F)c1ccc2ncc(-c3ccnc(N4CCOC(c5cn[nH]c5)C4)c3)n2n1 (stereo not shown) [II-147, 4-(4-(6-(Difluoromethyl)imidazo[1,2-b]pyridazin-3-yl)pyridin-2-yl)-2-(1H-pyrazol-4-yl)morpholine] | < 500 nM | 10 to 1000 nM
CS(=O)(=O)NCC1CN(c2cc(-c3cnc4ccc(C(F)F)nn34)ccn2)CCO1 (stereo not shown) [II-149, N-((4-(4-(6-(Difluoromethyl)imidazo[1,2-b]pyridazin-3-yl)pyridin-2-yl)morpholin-2-yl)methyl)methanesulfonamide] | < 500 nM | < 10 nM
CC(=O)N1CCN(c2cccc(-c3cnc4ccc(C(F)F)nn34)c2)CC1 [II-150, 1-(4-(3-(6-(Difluoromethyl)imidazo[1,2-b]pyridazin-3-yl)phenyl)piperazin-1-yl)ethanone] | 500 to 5000 nM | 10 to 1000 nM
CS(=O)(=O)NCC1CN(c2cc(-c3cnc4ccc(C(F)F)nn34)ccn2)CCC1(F)F (stereo not shown) [II-153, N-[[1-[4-[6-(Difluoromethyl)imidazo[1,2-b]pyridazin-3-yl]-2-pyridyl]-4,4-difluoro-3-piperidyl]methyl]methanesulfonamide] | < 500 nM | < 10 nM

Next, values leading:

IC50 [1] | Ki (GCN2 kinase) | SMILES
500 to 5000 nM | < 10 nM | CC(NS(C)(=O)=O)C1CCCN(c2cc(-c3cnc4ccc(C(F)F)nn34)ccn2)C1 (stereo not shown) [II-133, N-(1-(1-(4-(6-(Difluoromethyl)imidazo[1,2-b]pyridazin-3-yl)pyridin-2-yl)piperidin-3-yl)ethyl)methanesulfonamide]
500 to 5000 nM | 10 to 1000 nM | CC(NS(C)(=O)=O)C1CCCN(c2cc(-c3cnc4ccc(C(F)F)nn34)ccn2)C1 (stereo not shown) [II-134, N-(1-(1-(4-(6-(Difluoromethyl)imidazo[1,2-b]pyridazin-3-yl)pyridin-2-yl)piperidin-3-yl)ethyl)methanesulfonamide]
500 to 5000 nM | 10 to 1000 nM | NC(=O)CC1CCCN(c2cc(-c3cnc4ccc(C(F)F)nn34)ccn2)C1 (stereo not shown) [II-145, 2-(1-(4-(6-(Difluoromethyl)imidazo[1,2-b]pyridazin-3-yl)pyridin-2-yl)piperidin-3-yl)acetamide]
500 to 5000 nM | 10 to 1000 nM | OCCC1CN(c2cc(-c3cnc4ccc(C(F)F)nn34)ccn2)CCO1 (stereo not shown) [II-146, 2-(4-(4-(6-(Difluoromethyl)imidazo[1,2-b]pyridazin-3-yl)pyridin-2-yl)morpholin-2-yl)ethanol]
< 500 nM | < 10 nM | CC1(C)CN(c2cc(-c3cnc4ccc(C(F)F)nn34)ccn2)C[C@H](CNS(C)(=O)=O)O1 [II-148, (R)—N-((4-(4-(6-(Difluoromethyl)imidazo[1,2-b]pyridazin-3-yl)pyridin-2-yl)-6,6-dimethylmorpholin-2-yl)methyl)methanesulfonamide]
500 to 5000 nM | 10 to 1000 nM | C[S+]([O-])CC1CCCN(c2cc(-c3cnc4ccc(C(F)F)nn34)ccn2)C1 (stereo not shown) [II-151, 6-(Difluoromethyl)-3-(2-(3-((methylsulfinyl)methyl)piperidin-1-yl)pyridin-4-yl)imidazo[1,2-b]pyridazine]
> 5000 nM | 10 to 1000 nM | CS(=O)(=O)NCC1CN(c2cc(-c3cnc4ccc(C(F)F)nn34)ncn2)CC1O (stereo not shown) [II-152, N-((1-(6-(6-(Difluoromethyl)imidazo[1,2-b]pyridazin-3-yl)pyrimidin-4-yl)-4-hydroxypyrrolidin-3-yl)methyl)methanesulfonamide]
